This note sets out measurements from patent US9708314B2, “Heterocyclic amide compound” (NISSAN CHEMICAL INDUSTRIES, LTD., priority 2013, dated 2017).

The structures appear in SMILES notation.

Common to all, as to type: in vivo
Series [1] concerns Setaria viridis. Put plainly: Test Example 4: herbicidal effect by application to foliage (diluvial soil, plastic box). As to conditions: for G: Application herbicide amount 320 g/ha. Summed up:
(§1)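 Emulsion-formulated compound, diluted to a predetermined g/ha dose, applied by small sprayer to leaves and stems of 14-day-old seedlings grown in sterilized diluvial soil. Effect rated on 0–5 herbicidal-ratio scale three weeks on.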

In series [2] the test system is Apera spica-venti. The description is as above. The note with it: for L: Application herbicide amount 320 g/ha. Summed up:
as §1

The subject of series [3] is Echinochloa crus-galli var. crus-galli. The description is as above. As to conditions: for H: Application herbicide amount 320 g/ha. Summed up:
as §1

For series [4], the system named is Avena fatua. Described as above. The note with it: for I: Application herbicide amount 320 g/ha. Summed up: as §1
Series [5] relates to Abutilon theophrasti. Described as above. As to conditions: for M: Application herbicide amount 320 g/ha. In a few lines:
as §1

The subject of series [6] is Chenopodium album. Described as above. The note with it: for O: Application herbicide amount 320 g/ha. In a few lines: as §1
The subject of series [7] is Lolium multiflorum Lam. The description is as above. The note with it: for K: Application herbicide amount 320 g/ha. Summed up:
as §1

The subject of series [8] is Digitaria ciliaris. The series is described as above. As to conditions: for F: Application herbicide amount 320 g/ha. In a few lines:
as §1

For series [9], the system named is Galium spurium. The series is described as above. The note with it: for Q: Application herbicide amount 320 g/ha. In a few lines:
as §1

The subject of series [10] is Alopecurus myosuroides. Described as above. The note with it: for J: Application herbicide amount 320 g/ha. Summed up:
as §1

Series [11] concerns Echinochloa oryzacola Vasing. Briefly: Test Example 1: herbicidal activity, application before weed generation in submerged conditions. As to conditions: Application herbicide amount 320 g/ha; Seventeenth Table. Summed up:
(§2)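 Rating, on a six-step scale from almost no effect (0) to almost completely withered (5), was made three weeks after pre-emergence treatment. Treatment was surface application to flooded pots at g/ha rates, with plants kept at 25° C. to 30° C.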

Series [12] deals with Monochoria vaginalis. Described as above. As to conditions: Application herbicide amount 320 g/ha; Seventeenth Table. In a few lines: as §2
Series [13] relates to Scirpus juncoides. The series is described as above. As to conditions: Application herbicide amount 320 g/ha; Seventeenth Table. Summed up: as §2
Series [14] has as its system transplanted Oryza sativa. Put plainly: Test Example 1: effect on crop, application before weed generation in submerged conditions. As to conditions: Application herbicide amount 320 g/ha; Seventeenth Table. Summed up: as §2
Series [15] relates to directly sowed Oryza sativa. Briefly: Test Example 4: effect on crop by application to foliage (diluvial soil, plastic box). As to conditions: for d: Application herbicide amount 320 g/ha, effect on crop. In a few lines:
as §1

Series [16] concerns Brassica campestris L. The series is described as above. The note with it: for g: Application herbicide amount 320 g/ha, effect on crop. In a few lines:
as §1

In series [17] the test system is Glycine max. The description is as above. As to conditions: for c: Application herbicide amount 320 g/ha, effect on crop. In a few lines:
as §1

Series [18] relates to Beta vulgaris ssp. vulgaris. The series is described as above. The note with it: for f: Application herbicide amount 320 g/ha, effect on crop. In a few lines:
as §1

Series [19] concerns Zea mays. Described as above. As to conditions: for b: Application herbicide amount 320 g/ha, effect on crop. Summed up:
as §1

The test system of series [20] is Triticum aestivum. Described as above. As to conditions: for e: Application herbicide amount 320 g/ha, effect on crop. Summed up: as §1
Where [21] appears, read: application to foliage, application herbicide amount 320 g/ha.

On to `COCC[S+]([O-])c1nnc2c(C(=O)Nc3nnc(C)o3)ccc(C(F)(F)F)n12` (centres unmarked) [1-073], for which, in [1], the G is 5 (Herbicidal ratio of 90% or more (almost completely withered)). Also, in series [2], the L was 3 (Herbicidal ratio of 40% or more and less than 70%). For the same compound, in series [3], the H is 5 (Herbicidal ratio of 90% or more (almost completely withered)). Besides, in series [4], the I was 3 (Herbicidal ratio of 40% or more and less than 70%). The M in series [5] is reported as 5 (Herbicidal ratio of 90% or more (almost completely withered)). In addition, the O in series [6] is reported as 5 (Herbicidal ratio of 90% or more (almost completely withered)). In addition, in [7], the K was 3 (Herbicidal ratio of 40% or more and less than 70%). The F in [8] was 5 (Herbicidal ratio of 90% or more (almost completely withered)). Moreover, the Q in [9] is 2 (Herbicidal ratio of 20% or more and less than 40%). For the same compound, the J in [10] is 2 (Herbicidal ratio of 20% or more and less than 40%). For the same compound, the “A: Echinochloa oryzicola Vasing. (herbicidal effect grade)” value in [11] is 4 (Herbicidal ratio of 70% or more and less than 90%). Moreover, in [12], the “C: Monochoria vaginalis (herbicidal effect grade)” value (“C: Monochoria vaginalis” below) was 2 (Herbicidal ratio of 20% or more and less than 40%). In [13], the “B: Scirpus juncoides (herbicidal effect grade)” value (“B: Scirpus juncoides” below) was 3 (Herbicidal ratio of 40% or more and less than 70%). The “a: transplanted Oryza sativa (effect on crop grade)” value (“a: transplanted Oryza sativa” for short) in series [14] is 3 (Herbicidal ratio of 40% or more and less than 70%). Besides, the d in series [15] is 4 (Herbicidal ratio of 70% or more and less than 90%). Further, the g in series [16] was 3 (Herbicidal ratio of 40% or more and less than 70%). The c in [17] was 0 (Herbicidal ratio of 5% or less (almost no effect)). In series [18], the f is reported as 5 (Herbicidal ratio of 90% or more (almost completely withered)). Besides, in [19], the b is 5 (Herbicidal ratio of 90% or more (almost completely withered)). The e in series [20] was 3 (Herbicidal ratio of 40% or more and less than 70%).

As to `Cc1nnc(NC(=O)c2ccc(C(F)(F)F)n3c(C(C)S(C)(=O)=O)nnc23)o1` (centres unmarked) [1-080], the G in [1] is reported as 5 (Herbicidal ratio of 90% or more (almost completely withered)). Moreover, the L in series [2] is 5 (Herbicidal ratio of 90% or more (almost completely withered)). Also, in series [3], the H was 5 (Herbicidal ratio of 90% or more (almost completely withered)). Further, the I in series [4] is 4 (Herbicidal ratio of 70% or more and less than 90%). Further, the M in [5] is reported as 5 (Herbicidal ratio of 90% or more (almost completely withered)). Moreover, the O in series [6] is 5 (Herbicidal ratio of 90% or more (almost completely withered)). Further, the K in [7] was 4 (Herbicidal ratio of 70% or more and less than 90%). The F in [8] is reported as 5 (Herbicidal ratio of 90% or more (almost completely withered)). Further, the Q in [9] was 5 (Herbicidal ratio of 90% or more (almost completely withered)). The J in series [10] was 5 (Herbicidal ratio of 90% or more (almost completely withered)). In series [11], the “A: Echinochloa oryzicola Vasing. (herbicidal effect grade)” value is 5 (Herbicidal ratio of 90% or more (almost completely withered)). The “C: Monochoria vaginalis” value in series [12] is 4 (Herbicidal ratio of 70% or more and less than 90%). Also, in series [13], the “B: Scirpus juncoides” value is 4 (Herbicidal ratio of 70% or more and less than 90%). In addition, the “a: transplanted Oryza sativa” value in [14] is 4 (Herbicidal ratio of 70% or more and less than 90%). For the same compound, the d in [15] is listed as 5 (Herbicidal ratio of 90% or more (almost completely withered)). In series [16], the g is given as 5 (Herbicidal ratio of 90% or more (almost completely withered)). The c in series [17] was 4 (Herbicidal ratio of 70% or more and less than 90%). In addition, the f in [18] is 5 (Herbicidal ratio of 90% or more (almost completely withered)). Besides, the b in [19] is 4 (Herbicidal ratio of 70% or more and less than 90%). For the same compound, the e in series [20] was 5 (Herbicidal ratio of 90% or more (almost completely withered)).

As to `Cc1nnc(NC(=O)c2ccc(C(F)(F)F)n3c(C)nnc23)o1` [1-002], the “G (Setaria viridis) herbicidal effect” value in series [1] (setting [21]) is 2 (Herbicidal ratio of 20% or more and less than 40%). In addition, the “L (Apera spica-venti.) herbicidal effect” value in [2] (setting [21]) was 1 (Herbicidal ratio of 5% or more and less than 20%). The “H (Echinochloa crus-galli var. crus-galli) herbicidal effect” value in series [3] (setting [21]) was 5 (Herbicidal ratio of 90% or more (almost completely withered)). Further, the “I (Avena fatua) herbicidal effect” value in series [4] (setting [21]) was 3 (Herbicidal ratio of 40% or more and less than 70%). Besides, the “M (Abutilon theophrasti) herbicidal effect” value in series [5] (setting [21]) was 3 (Herbicidal ratio of 40% or more and less than 70%). Moreover, the “O (Chenopodium album) herbicidal effect” value in series [6] (setting [21]) is on record as 5 (Herbicidal ratio of 90% or more (almost completely withered)). Further, in series [7] (setting [21]), the “K (Lolium multiflorum Lam.) herbicidal effect” value is 2 (Herbicidal ratio of 20% or more and less than 40%). Also, the “F (Digitaria ciliaris) herbicidal effect” value in series [8] (setting [21]) is 4 (Herbicidal ratio of 70% or more and less than 90%). Further, in series [9] (setting [21]), the “Q (Galium spurium) herbicidal effect” value was 4 (Herbicidal ratio of 70% or more and less than 90%). Also, in series [10] (setting [21]), the “J (Alopecurus myosuroides) herbicidal effect” value was 1 (Herbicidal ratio of 5% or more and less than 20%). In addition, the “A: Echinochloa oryzicola Vasing. (herbicidal effect grade)” value in [11] was 2 (Herbicidal ratio of 20% or more and less than 40%). Further, the “C: Monochoria vaginalis” value in series [12] is 0 (Herbicidal ratio of 5% or less (almost no effect)). For the same compound, the “B: Scirpus juncoides” value in series [13] is 1 (Herbicidal ratio of 5% or more and less than 20%). Further, in [14], the “a: transplanted Oryza sativa” value was 0 (Herbicidal ratio of 5% or less (almost no effect)). Moreover, in series [15] (setting [21]), the “d (directly sowed Oryza sativa) effect on crop” value is 3 (Herbicidal ratio of 40% or more and less than 70%). Also, the “g (Brassica campestris L.) effect on crop” value in [16] (setting [21]) is 4 (Herbicidal ratio of 70% or more and less than 90%). Also, in series [17] (setting [21]), the “c (Glycine max) effect on crop” value is given as 0 (Herbicidal ratio of 5% or less (almost no effect)). In [18] (setting [21]), the “f (Beta vulgaris ssp. vulgaris) effect on crop” value is 5 (Herbicidal ratio of 90% or more (almost completely withered)). Moreover, in series [19] (setting [21]), the “b (Zea mays) effect on crop” value was 0 (Herbicidal ratio of 5% or less (almost no effect)). In [20] (setting [21]), the “e (Triticum aestivum) effect on crop” value was 1 (Herbicidal ratio of 5% or more and less than 20%).

As to `COc1cc(OC)cc(-c2nnc3c(C(=O)Nc4nnc(C)o4)ccc(C(F)(F)F)n23)c1` [1-070], in series [1], the G is 4 (Herbicidal ratio of 70% or more and less than 90%). In series [2], the L is recorded as 0 (Herbicidal ratio of 5% or less (almost no effect)). Moreover, the H in series [3] is listed as 5 (Herbicidal ratio of 90% or more (almost completely withered)). In [4], the I was 1 (Herbicidal ratio of 5% or more and less than 20%). In addition, in [5], the M is 4 (Herbicidal ratio of 70% or more and less than 90%). The O in series [6] is reported as 5 (Herbicidal ratio of 90% or more (almost completely withered)). Besides, in series [7], the K is listed as 0 (Herbicidal ratio of 5% or less (almost no effect)). Also, in series [8], the F was 4 (Herbicidal ratio of 70% or more and less than 90%). Moreover, the Q in [9] was 3 (Herbicidal ratio of 40% or more and less than 70%). Further, the J in [10] is given as 0 (Herbicidal ratio of 5% or less (almost no effect)). Also, the “A: Echinochloa oryzicola Vasing. (herbicidal effect grade)” value in [11] was 5 (Herbicidal ratio of 90% or more (almost completely withered)). Besides, in series [12], the “C: Monochoria vaginalis” value is on record as 5 (Herbicidal ratio of 90% or more (almost completely withered)). For the same compound, the “B: Scirpus juncoides” value in series [13] was 5 (Herbicidal ratio of 90% or more (almost completely withered)). Moreover, the “a: transplanted Oryza sativa” value in [14] is 3 (Herbicidal ratio of 40% or more and less than 70%). Further, the d in series [15] was 4 (Herbicidal ratio of 70% or more and less than 90%). Further, the g in [16] was 3 (Herbicidal ratio of 40% or more and less than 70%). The c in [17] is on record as 0 (Herbicidal ratio of 5% or less (almost no effect)). Further, the f in [18] was 4 (Herbicidal ratio of 70% or more and less than 90%). Also, in [19], the b is on record as 0 (Herbicidal ratio of 5% or less (almost no effect)). Besides, the e in series [20] is 0 (Herbicidal ratio of 5% or less (almost no effect)).
